Publication PMC8294803, “A Roadmap to the Structure-Related Metabolism Pathways of Per- and Polyfluoroalkyl Substances in the Early Life Stages of Zebrafish (Danio rerio)” (Environmental Health Perspectives, 2021)
Values joined by “and” are separate entries in the source; they are usually repeats but may differ in a detail not shown here. Identical values can stand only once. Like-named read-outs stand apart in the source and are kept apart here.

Key:
[1] = test system: zebrafish larvae; experiment: Bioconcentration factors (BCF) of PFAS in zebrafish larvae; conditions: zebrafish larvae, 120 hpf, three replicates; for BCF 0.5µM: 0.5 µM exposure; for BCF 5µM: 5 µM exposure
Description: Zebrafish embryos were collected immediately after spawning, within 1 h, and subsequently transferred to 24-well plates with 1mL of facility water ( 0.036g sea salt, 0.15g sodium bicarbonate in 2L of reverse osmosis water). […] Three well replicates on the same plate were conducted for each concentration of individual chemical. […] Seven batches of experiments were performed to test all 74 PFAS. DMSO controls were incorporated in each batch of exposure experiments. Three replicates were performed for each treatment group, and 20 embryos were used for each replicate. […] For daily replenishment, 2.5mL of old exposure medium were replaced with freshly prepared medium every 24 h from 24 to 96 h post fertilization (hpf). Hatched or dead embryo numbers were recorded every 24 hpf, after which dead embryos were discarded from the growth media. Dead embryos or unhatched embryos were not used for PFAS measurement because the metabolism of PFAS might have been impacted. Zebrafish larvae collection occurred at 120 hpf. First, the larvae were anesthetized by cooling the plate in ice water (0–4°C) for ∼20 min . Then 8–15 larvae in each well were transferred into 1.5-mL tubes. Exposure media was carefully removed, and then the larvae were weighed (wet weight) after blotting excess water with a paper towel. […] Samples were stored at −80 °C until further chemical analysis was performed. Survival rate and hatching rate were calculated by summarizing all the documented data from the whole treatment duration. […] The exposure experiment of PFOSA was repeated using the same procedure as described above.
Each sample was spiked with 2μL of 0.2μg/mL mass-labeled PFAS mixture. Following this, 500μL of dichloromethane/methanol (2:1, vol/vol) was added to each sample for PFAS extraction. Larvae were then homogenized via ultrasonic probe, followed by 30 min of shaking and 30 min of sonication. Each sample was centrifuged at 14,000×g for 5 min, after which the supernatant was transferred to new tubes. Extraction was repeated once and the two supernatants were combined, evaporated under nitrogen flow, and reconstituted in 200μL of methanol for MS analysis.
Three microliters of each zebrafish extract was applied to a C18 column ( 1.5μm; 2.1mm×50mm; Thermo Scientific) and analyzed using a Vanquish ultra-HPLC system (Thermo Fisher Scientific) coupled to a Q Exactive high-resolution mass spectrometer (Thermo Fisher Scientific). The sampler and column compartments were maintained at 4°C and 40°C, respectively. The aqueous mobile phase solution (A) consisted of water, whereas the organic mobile phase solution (B) consisted of acetonitrile. […] MS data was acquired in full scan mode (100–1000 m/z, 70,000 mass resolution, 3×10^6 maximum ions collected per 100 ms), and tandem MS (MS/MS) data was recorded by all-ion fragmentation (AIF) mode. Negative and positive ion modes were carried out simultaneously at a 10-min method duration. […] An overview of the analyses conducted on the various PFAS is available in Table S2.
GraphPad Prism (version 7.0.4; GraphPad Software) and R studio (version 1.1.456; R Studio Inc.) software was used, and an ANOVA with Dunnett tests was employed to evaluate the statistical significance of the percentage hatched and mortality rate. Exponential regressions were used to determine the relationships between bioconcentration factor (BCF) and binding affinities ( Kd ) to L-FABP.

[2] = molecular target: liver fatty acid binding protein (L-FABP); set-up: method as in Yang et al. 2020; conditions: ref Yang et al. 2020; read-out: Kd (μM), L-FABP binding affinity; cited from earlier work
[3] = test system: zebrafish embryos
[4] = 5μM through 120 hpf, malformation rate

SMILES | BCF 0.5µM [1] | BCF 5µM [1] | Kd [2] | pericardial oedemata, Mean [3, 4] | spinal curvature, Mean [3, 4] | tail dysplasia, Mean [3, 4] | Mortality (%) ([3]; 5 µM, exposure through 120 hpf) | Mortality (%) ([3]; in vivo) | pericardial oedemata, Mean ([3]; in vivo) | spinal curvature, Mean ([3]; in vivo) | tail dysplasia, Mean ([3]; in vivo) | Lethal effects on zebrafish larvae ([3]; 5μM, 5 d)
O=S(=O)([O-])C(F)(F)C(F)(F)C(F)(F)C(F)(F)C(F)(F)C(F)(F)C(F)(F)C(F)(F)F.[K+] [compound 6, Potassium perfluorooctanesulfonate] | 288 ± 99 L/kg and 287.815 L/kg | 82 ± 9.2 L/kg | 8.1 µM | 1.11% | 2.22% | 1.11% | 2.2% | – | – | – | – | –
O=C(O)C(F)(F)OC(F)(F)C(F)(F)OC(F)(F)C(=O)O [compound 7, Perfluoro-3,6-dioxaoctane-1,8-dioic acid] | NDb | – | – | 2.22% | 1.11% | 0.00% | 1.1% | – | – | – | – | –
O=S(=O)(O)CCC(F)(F)C(F)(F)C(F)(F)C(F)(F)F [compound 15, 4:2 Fluorotelomer sulfonic acid] | 5.68 L/kg | 2.5 ± 0.13 L/kg | – | – | – | – | – | 0 | 1.11% | 0.00% | 0.00% | –
O=C(O)C(F)(F)C(F)(F)C(F)(F)C(F)(F)C(F)(F)C(F)(F)C(F)(F)C(F)(F)F [compound 17, Perfluorononanoic acid] | 152.811 L/kg | 73 ± 6.9 L/kg | 4.3 µM | 0.00% | 0.00% | 0.00% | 1.1% | – | – | – | – | –
O=C(O)C(F)(F)C(F)(F)C(F)(F)C(F)(F)C(F)(F)F [compound 20, Perfluorohexanoic acid] | 6.647 L/kg | 3.5 ± 0.64 L/kg | 141 µM | 0.00% | 0.00% | 0.00% | 0% | – | – | – | – | –
N.O=C(O)C(F)(F)C(F)(F)C(F)(F)C(F)(F)C(F)(F)C(F)(F)C(F)(F)F [compound 21, Ammonium perfluorooctanoate] | 42.5265 L/kg | 21 ± 0.42 L/kg | 18.7 µM | 2.22% | 1.11% | 2.22% | 0% | – | – | – | – | –
O=C(O)C=C(C(F)(F)F)C(F)(F)F [compound 23, 3,3-Bis(trifluoromethyl)-2-propenoic acid] | 1.831 L/kg | 0.69 ± 0.29 L/kg | – | 1.11% | 3.33% | 3.33% | 2.2% | – | – | – | – | –
CCNS(=O)(=O)C(F)(F)C(F)(F)C(F)(F)C(F)(F)C(F)(F)C(F)(F)C(F)(F)C(F)(F)F [compound 24, N-Ethylperfluorooctanesulfonamide] | 28.4424 L/kg | 24 ± 2.9 L/kg | – | 1.11% | 1.11% | 1.11% | 3.3% | – | – | – | – | did not cause significant lethal effects
